Our source for the LC retention time values is the RepoRT retention time repository (doi:10.1016/j.foodchem.2021.129757).

What all share (conditions): stereoisomer not certain
Series [1] can be described thus: RP, Waters ACQUITY UPLC BEH Shield RP18, 100 × 2.1 mm, 1.7 µm, 30 °C, 0.6 mL/min, estimated dead time 0.37 min; A: water + 0.1% formic acid, pH 3; B: acetonitrile + 0.1% formic acid, pH 3; gradient (min/%B) 0/0 2/0 7/10 22/95 22.1/0 26/0.
Series [2] is described as follows: RP, Waters ACQUITY UPLC HSS T3, 100 × 2.1 mm, 1.8 µm, 30 °C, 0.4 mL/min, estimated dead time 0.55 min; A: water + 0.1% formic acid, pH 3; B: acetonitrile + 0.1% formic acid, pH 3; gradient (min/%B) 0/0 2/0 15/100 22/100 22.1/0 26/0.
Series [3] in a line: RP, Phenomenex Luna Omega Polar C18, 100 × 2.1 mm, 1.6 µm, 40 °C, 0.5 mL/min, estimated dead time 0.44 min; A: water + 0.1% formic acid + 10 mM ammonium formate; B: acetonitrile; gradient (min/%B) 0/5 8/20 10/100 12/100 12.1/5 14/5.
A short description of series [4]: RP, Waters ACQUITY UPLC BEH Shield RP18, 150 × 2.1 mm, 1.7 µm, 40 °C, 0.4 mL/min, estimated dead time 0.83 min; A: water + 0.1% formic acid, pH 3; B: acetonitrile + 0.1% formic acid, pH 3; gradient (min/%B) 0/0 30/50 31/100 37/100 37.1/0.
The nature of series [5]: RP, Agilent ZORBAX Eclipse XDB-C18, 100 × 2.1 mm, 1.8 µm, 50 °C, 0.4 mL/min, estimated dead time 0.55 min; A: water + 0.1% formic acid, pH 3; B: methanol + 0.1% formic acid, pH 3; gradient (min/%B) 0/2 10/100 14.5/100 14.51/2 16.5/2.
A short description of series [6]: RP, Agilent InfinityLab Poroshell 120 EC-C18, 100 × 3 mm, 2.7 µm, 25 °C, 0.4 mL/min, estimated dead time 1.1 min; A: water + 0.1% formic acid, pH 3; B: acetonitrile + 0.1% formic acid, pH 3; gradient (min/%B) 0/5 10/25 20/40 24/90 25/90 26/5 30/5.
Series [7] can be described thus: RP, Phenomenex Synergi Hydro-RP, 150 × 2 mm, 4 µm, 30 °C, 0.5 mL/min, estimated dead time 0.6 min; A: water + 0.1% formic acid, pH 3; B: acetonitrile + 0.1% formic acid, pH 3; gradient (min/%B) 0/5 1/5 35/45 40/100 45/100.
A short description of series [8]: RP, Phenomenex Luna Omega Polar C18, 100 × 2.1 mm, 1.6 µm, 40 °C, 0.5 mL/min, estimated dead time 0.44 min; A: water + 0.5% formic acid; B: acetonitrile + 0.5% formic acid; gradient (min/%B) 0/5 3/50 3.1/100 5/100 5.1/5 7/5.
The nature of series [9]: RP, Phenomenex Luna C18, 150 × 4.6 mm, 3 µm, 25 °C, 0.5 mL/min, estimated dead time 3.2 min; A: water + 0.1% formic acid, pH 3; B: acetonitrile + 0.1% formic acid, pH 3; gradient (min/%B) 0/0 30/30 35/40 50/80 52/80 60/0 65/0.
Series [10] in a line: RP, Waters ACQUITY UPLC BEH C18, 100 × 2.1 mm, 1.7 µm, 65 °C, 0.4 mL/min, estimated dead time 0.55 min; A: water + 0.1% formic acid, pH 3; B: 80% acetonitrile + 20% acetone + 0.1% formic acid, pH 3; gradient (min/%B) 0/0 5/100 5.5/0 6/0.
Series [11] is described as follows: RP, 50 × 0.5 mm, 2.7 µm, 35 °C, 0.01 mL/min, estimated dead time 0.62 min; A: water + 0.1% formic acid, pH 3; B: acetonitrile + 0.1% formic acid, pH 3; gradient (min/%B) 0/5 12/95 14/95 16/5.
The nature of series [12]: Other, Phenomenex Kinetex PFP, 100 × 4.6 mm, 5 µm, 45 °C, 0.6 mL/min, estimated dead time 1.8 min; A: water + 0.1% trifluoroacetic acid, pH 2; B: methanol; gradient (min/%B) 0/40 20/72 21/40.
Series [13] is described as follows: RP, Agilent ZORBAX RRHD Eclipse Plus C18, 50 × 2.1 mm, 1.8 µm, 30 °C, 0.4 mL/min, estimated dead time 0.28 min; A: water + 0.1% formic acid, pH 3; B: acetonitrile + 0.1% formic acid, pH 3; gradient (min/%B) 0/1 5/10 8/25 9.1/99 10/99 12/1.
The nature of series [14]: RP, Agilent ZORBAX RRHD Eclipse Plus C18, 50 × 2.1 mm, 1.8 µm, 30 °C, 0.4 mL/min, estimated dead time 0.28 min; A: water + 0.1% formic acid, pH 3; B: acetonitrile + 0.1% formic acid, pH 3; gradient (min/%B) 0/1 5/10 8/25 9.1/99 10/99 12/99.
Series [15] can be described thus: RP, Waters ACQUITY UPLC HSS T3, 100 × 2.1 mm, 50 °C; A: water + 0.1% formic acid, pH 3; B: 30% methanol + 70% acetonitrile + 0.1% formic acid, pH 3; gradient (min/%B) 0/5 1/8 2/15 3/40 4/70 4.5/100 5/100 6.4/100 6.6/5 6.8/5 7/5.
Series [16] in a line: RP, Merck LiChrospher RP-18, 250 × 4 mm, 5 µm, 35 °C, 0.3 mL/min, estimated dead time 6.7 min; A: water + 0.5% formic acid; B: acetonitrile + 0.5% formic acid; gradient (min/%B) 0/5 10/5 30/15 45/20 65/20 95/54 110/63 115/5 135/5.
A short description of series [17]: RP, Waters Atlantis T3, 100 × 2.1 mm, 3 µm, 40 °C, 0.3 mL/min, estimated dead time 0.73 min; A: water + 0.1% trifluoroacetic acid, pH 2; B: acetonitrile + 0.1% trifluoroacetic acid, pH 2; gradient (min/%B) 0/10 1/10 6/40 7/50 8/50 14/70 16/80 20/10 25/10.
A short description of series [18]: RP, Phenomenex Kinetex EVO C18, 100 × 2.1 mm, 2.6 µm, 40 °C, 0.4 mL/min, estimated dead time 0.55 min; A: water + 0.2% formic acid; B: acetonitrile + 0.2% formic acid; gradient (min/%B) 0/5 0.5/5 7/95 8/95 8.5/5 12/5.

Take `COc1cc(CC2COC(c3ccc(O)c(OC)c3)C2CO)ccc1O` (single isomer, unassigned; (+)) [(+)-Lariciresinol]: the LC retention time in series [1] is 13.5 min; in series [2], 10.2 min; in series [3] it was 9.31 min; in [4] it was 15 min; in [5], 5.5 min; in series [6], 12.1 min. In addition, the LC retention time was 19.4 min in [7]; 2.68 min in series [8]; 32.2 min in [9]; 2.48 min in [10]; 5.08 min in series [11].

Turning to `COc1cc(C2Oc3c(O)cc(-c4oc5cc(O)cc(O)c5c(=O)c4O)cc3C2CO)ccc1O` (centres undefined) [2,3-Dehydrosilychristin A], in series [12], the LC retention time was 17.5 min.

Turning to `Cc1ccc(O)c(OS(=O)(=O)O)c1` [4-Methylcatechol monosulfate], in series [12], the LC retention time is 4.92 min.

Take `COc1c(O)cc(C(=O)O)cc1OS(=O)(=O)O` [4-O-methylgallic acid 3-O-sulfate]: the LC retention time in series [1] was 10.4 min; in [2], 7.32 min; in series [3] it was 1.78 min; in series [13], 3.6 min; in series [5], 2.27 min; in series [6], 3.61 min. Besides, the LC retention time in series [7] is 5.32 min; in [8], 1.41 min; in series [9], 11.7 min; in series [14] it was 1.15 min; in [11], 1.84 min.

`Cc1ccc(O)c(O)c1` [4-methylcatechol]: the LC retention time in series [12] is 6.24 min.

`CCCCCCCCCCCCCCCCCc1cc(O)cc(O)c1` [Alkylresorcinol C17:0]: the LC retention time is 20.3 min in [2]; 11.1 min in series [3]; 11.1 min in series [5]; 4.6 min in series [8]; 13.3 min in series [11].

For `CCCCCCCCCCCCCCCCCCCCCCCCCc1cc(O)cc(O)c1` [Alkylresorcinol C25:0], the LC retention time was 11 min in series [3], 13 min in series [5] and 5.12 min in series [8].

On to `O=C1c2c(O)cc(O)cc2OC(c2cc(O)c(OS(=O)(=O)O)c(O)c2)C1O` (centres undefined) [Ampelopsin-4-O-sulfate], for which the LC retention time in [12] is 7.54 min.

`O=S(=O)(O)Oc1ccccc1O` [Catechol O-sulfate]: the LC retention time was 1.79 min in series [3]; 7.99 min in [4]; 2.95 min in series [13]; 2.1 min in [5]; 4.22 min in series [6]; 4.29 min in [7]. For the same compound, the LC retention time in series [15] is 2.26 min; in series [9] it was 18.2 min; in series [14], 1.45 min.

As to `OCC1OC(Oc2cc3c(O)cc(O)cc3[o+]c2-c2ccc(O)c(O)c2)C(O)C(O)C1O` (centres undefined) [Cyanidin 3-O-glucoside], the LC retention time was 10.8 min in [1]; 7.85 min in [2]; 7.98 min in series [4]; 3.52 min in [5]; 5.65 min in series [6]; 9.85 min in [7]. Moreover, the LC retention time in [8] was 1.76 min; in series [9], 9.83 min; in series [16], 49 min; in [11] it was 3.25 min; in series [17] it was 5.04 min.

Take `OCCc1ccc(O)c(O)c1` [Hydroxytyrosol]: the LC retention time in series [2] is 7.27 min; in series [3], 2.05 min; in [4], 3.26 min; in series [5], 2.44 min; in series [6], 3.8 min; in series [9] it was 8.55 min. In addition, the LC retention time in series [11] is 1.67 min.

Take `O=c1c(OC2OC(CO)C(O)C(O)C2O)c(-c2ccc(OS(=O)(=O)O)c(O)c2)oc2cc(O)cc(O)c12` (centres undefined) [Isoquercitrin 4-O-sulfate]: the LC retention time in series [12] was 7.77 min.

For the compound `O=c1cc(-c2ccc(O)c(OS(=O)(=O)O)c2)oc2cc(O)cc(O)c12` [Luteolin 3-sulfate], the LC retention time in series [12] is 16.4 min.

As for `O=c1cc(-c2ccc(OS(=O)(=O)O)c(O)c2)oc2cc(O)cc(O)c12` [Luteolin 4-sulfate], the LC retention time in series [12] was 17.1 min.

As to `O=c1cc(-c2ccc(OS(=O)(=O)O)c(O)c2)oc2cc(OS(=O)(=O)O)cc(O)c12` [Luteolin 7,4-disulfate], the LC retention time in series [12] was 11.9 min.

As for `O=c1c(O)c(-c2cc(O)c(OS(=O)(=O)O)c(O)c2)oc2cc(O)cc(O)c12` [Myricetin 4-O-sulfate], the LC retention time in series [12] was 15.2 min.

In the case of `Oc1cc(O)cc(O)c1` [Phloroglucinol], in series [12], the LC retention time was 2.9 min.

Turning to `O=c1oc2cc(O)ccc2c2ccc(O)cc12` [Urolithin A], the LC retention time was 14.9 min in [1]; 10.6 min in series [2]; 9.38 min in [3]; 18.4 min in series [4]; 5.95 min in [5]; 13.1 min in series [6]. The LC retention time was 3.08 min in series [8], 5.59 min in series [18], 35.8 min in series [9] and 5.33 min in [11].

Take `CC1CCC2(C(=O)O)CCC3(C)C(=CCC4C5(C)CCC(O)C(C)(C)C5CCC43C)C2C1C` (centres undefined) [Ursolic acid]: the LC retention time in series [1] was 22.7 min; in [2], 18.1 min; in series [3], 10.9 min; in series [4], 34.2 min; in series [5], 10.7 min; in series [8], 1.8 min. In addition, the LC retention time in series [11] was 11.2 min.
